Patent US20220193272A1, “Bleeding Detection Method” (Ethicon, Inc., priority 2020, published 2022)
Entries after “also recorded” stand apart in the source; their conditions may differ. Peptide text beside a SMILES is read from it. * marks the point of attachment. AMC = Cc1cc(=O)oc2cc(N*)ccc12; Bz = O=C(c1ccccc1)*

What was measured:
thrombin [1] = target: T1, thrombin (Homo sapiens, UniProt P00734); test: Detection of thrombin activity on chromogenic substrate coated onto cellulose matrix; type: biochemical; details: 1 mL of 2 mg/mL substrate sprayed on matrix; EVICEL thrombin applied; 30 sec at room temperature; dihydrochloride
T1 construct: purchased EVICEL® fibrin sealant kit product code 3905
Procedure: S-2238 chromogenic thrombin substrate ((H-D-Phenylalanyl-L-pipecolyl-L-arginine-p-nitroaniline dihydrochloride) which is available from Chromgenix, Instrumentation Laboratory Company, Bedford, Mass., USA catalog number: 82032439), 25 mg, was dissolved in 12.5 mL of water. The resulting concentration was 2 mg/mL (25 mg in 12.5 mL). 1 mL of 2 mg/mL of the chromogenic substrate was sprayed onto one side of a white cellulose matrix (paper towel Scott C-Fold) approx. 4 in×6 cm in using the EVICEL® ASA tip (product code 3921S). The other side was not coated or sprayed with the substrate.
A kit of EVICEL® (product code 3905) was thawed in a 37° C. water bath for 5 min. […] This was repeated on the substrate coated side and also applied in duplicate on the non-substrate coated side.
As a control, thrombin was applied to the non-coated side of the matrix and no color changed was observed.

thrombin [2] = target: T1, thrombin; test: Thrombin activity on chromogenic substrate in solution (dip stick standard tubes); type: biochemical; details: 0.2 mL of 2 mg/mL substrate + 1.8 mL water, about 2 min at room temperature
Procedure: A “dip stick” can be dabbed onto a tissue surface that is suspected of bleeding (FIG. 2). The end of the dip stick can then be placed into a solution containing the visualization agent (chromogenic substrate). The amount of the thrombin present in the dip stick is determined by comparison with a standard curve obtained by running similar tests with known thrombin concentrations.
For example, 0.2 mL of the 2 mg/mL chromogenic substrate was combined with 1.8 mL of water in a […] in 2 borosilicate glass tubes. The solution was gently mixed to distribute the substrate. A third tube was filled with 2 mL of water as an untreated control. To one of the tubes with the diluted substrate, 100 uL of 1000 IU/mL thrombin was added and 10 uL was added to the other tube. After about 2 min at room temperature, a photo was captured of the tubes.
The tube with water is shown as a reference. The intensity of the color change reflected the amount of thrombin.

thrombin [3] = target: T1, thrombin; test: Detection of chromogenic substrate product in plasma activated by thromboplastin reagent; type: biochemical; details: 0.4 mL PNP + 0.2 mL thromboplastin reagent with calcium + 0.2 mL of 2 mg/mL substrate; room temperature
Procedure: Plasma has a background color (straw color). To test whether the product of the chromogenic substrate can be detected in plasma, 0.4 mL pooled normal plasma (PNP from George King Biomedical) was activated by a thromboplastin reagent (0.2 mL, Neoplastin CL plus product number 00375) with calcium to allow thrombin generation.
Either 0.2 mL saline (as a control) or 0.2 mL of 2 mg/mL of the chromogenic substrate was added to the tube and mixed on the tube rocker.
Evidence of clot formation was present after approx. 30 sec at room temperature. In view of the presence of fibrinogen in plasma, complete clot formation, i.e. solid/stable clot, occurred at approx. 2 min at room temperature.

thrombin [4] = target: T1, thrombin; test: Detection of thrombin in solution with fluorescent substrates; type: biochemical
Procedure: 1. 2 mL of 0, 10 IU/mL and 100 IU/mL thrombin in saline (none, low, and high thrombin) was prepared in duplicates and tubes were labeled accordingly. Stock of EVICEL® thrombin is about 1000 IU/mL.
2. A defined amount of thrombin substrate was added to thrombin solutions as follows and fluorescence of the mixture was evaluated. The substrate stock solutions were diluted 1:10 in Tris Buffered saline (TBS) buffer (180 uL TBS and 20 uL of stock substrate solution). TBS buffer comprises 20 mM Tris and 150 mM sodium chloride, and is adjusted to pH 7.4. 0.05 mL of the diluted stock solution (1:10 dilution) was added to the 2 mL of thrombin prepared in step 1, mixed at room temperature, and incubated for about 3 mins.
3. Images of tubes were captured while shining with light (using various light emitting sources) and responses were compared for different amounts of thrombin.

thrombin [5] = target: T1, thrombin; test: Detection of thrombin in solution, repeated with higher amounts of substrate; type: biochemical; parameters: key to fluorescence signal, relative rank: +++: strongest fluorescence signal; ++: signal was greater; +: fluorescence signal was lowest; details: 100 uL at 5 mg/mL in DMSO [500 ug total substrate], 100 IU/mL thrombin, approx. 5 min
Procedure: 100 IU/mL of thrombin was used.
To 1.0 mL of 100 IU/mL thrombin in saline, 100 uL of Sigma substrate at 5 mg/mL in DMSO was added [500 ug total substrate].
To 1.0 mL of 100 IU/mL thrombin in saline, 100 uL of HTI substrate diluted in TBS at 0.25 mg/mL (50 uL HTI manufacture's stock and 1.5 mL TBS, i.e. 1:30 dilution) was added [25 ug total substrate].
To 1.0 mL of 100 IU/mL thrombin in saline, 10 uL of HTI manufacture's stock (7.5 mg/mL in DMSO) was added [75 ug total substrate]
Images of tubes were captured under various lighting conditions (using various light sources) and responses were compared.
The experiments were carried out at room temperature.

thrombin [6] = target: T1, thrombin; test: Detection of thrombin on a surface (cellulose matrix) with fluorogenic substrates; type: biochemical; details: approx. 60 min after spraying; 365 nm flashlight only; after moving the matrix out of its original position
Procedure: 2 mL solutions of 0, 10 IU/mL and 100 IU/mL thrombin in saline (none, and low and high thrombin) were prepared using a stock solution of EVICEL® thrombin of about 1000 IU/mL. 1 mL of each thrombin dilution was sprayed onto white cellulose matrix (paper towel Scott C-Fold) in a designated area.
Immediately a defined amount of thrombin substrate, prepared as follows, was sprayed on the thrombin and coated cellulose matrix and fluorescence of the mixture was evaluated. The substrate stock solutions were diluted 1:10 in TBS (using 900 uL TBS and 100 uL of stock substrate solution). 1.0 mL of the diluted stock solution (1:10 dilution) was sprayed across all three regions of the cellulose matrix coated with thrombin at different levels.
Images of cellulose matrix under various lighting conditions (with various light sources) were captured and the response was compared for different amounts of thrombin and substrates. The Experiments were carried out at room temperature.

thrombin [7] = target: T1, thrombin; test: Detection of thrombin generated in plasma with fluorogenic substrates; type: biochemical
Procedure: (§1) Pooled normal plasma (PNP) was purchased from George King Biomedical was thawed at 37 C for 5 min. 0.5 mL of PNP was aliquoted into 3-10×75 mm borosilicate glass tubes. To each to glass tube, 0.10 mL stock fluorescent substrate or 0.10 mL stock TBS was added. Tubes were labeled accordingly.
(§2) 1.0 mL of PT reagent (Diagnostica Stago, STA Neoplastine Cl Plus containing calcium) was dispensed into the three tubes.
Images of tubes were captured while using shining light (using various light sources) and response was compared for different substrates.

pooled normal plasma = test: Clotting of pooled normal plasma with PT reagent in presence of substrate; type: biochemical; details: 0.5 mL PNP + 0.10 mL stock (5 mg/mL in DMSO) + 1.0 mL PT reagent; room temperature
Procedure: as §1, §2
The blank/TBS control clotted in approx. 10 sec (as expected for a PT clotting time).

thrombin [8] = test: In vivo detection of thrombin at bleeding site, canine model with liver and spleen abrasions
Procedure: In this in vivo study, the ability to detect thrombin on a surface in a live animal after creating a bleeding defect was assessed in a canine model with liver and spleen abrasions.
Diffuse/oozing bleeding abrasion defect was created using cautery tip cleaning pad.
0.5 mL of Sigma fluorogenic substrate (Stock solution 5 mg/mL concentration in DMSO protected from light) was sprayed onto bleeding site and visualized with flashlight (356 nm) 2-3 min after application.

Cl.Cl.NC(N)=NCCC[C@H](NC(=O)[C@@H]1CCCCN1C(=O)[C@H](N)Cc1ccccc1)C(=O)Nc1ccc([N+](=O)[O-])cc1 [S-2238, H-D-Phenylalanyl-L-pipecolyl-L-arginine-p-nitroaniline dihydrochloride]
coloration on substrate coated side of cellulose matrix (thrombin [1]): yellow coloration (dark streaks) was evident; also recorded: change in coloration was evident | coloration of tube (thrombin [2]; 10 uL of 1000 IU/mL thrombin): faint yellow coloration | coloration of tube (thrombin [2]; 100 uL of 1000 IU/mL thrombin): yellow coloration | yellow coloration/hue of clotted plasma compared with the saline control (thrombin [3]): significantly stronger

Cc1cc(=O)oc2cc(NC(=O)[C@H](CCCN=C(N)N)NC(=O)[C@@H](NC(=O)[C@H](Cc3ccccc3)NC(=O)c3ccccc3)C(C)C)ccc12 [Sigma substrate] (Bz-Phe-Val-Arg-{AMC})
time within which all of the substrate was cleaved (thrombin [4]; 100 IU/mL thrombin, no change in intensity between 3 min and 60 min): ≤ 3 min | fluorescence (thrombin [4]; approx. 3 min, ambient overhead lighting and 365 nm flashlight, 100 IU/mL thrombin): displaying fluorescence | color change (thrombin [4]; approx. 3 min, ambient overhead lighting only, thrombin 100, 10 and 0 IU/mL): no color change observed | fluorescence (thrombin [4]; approx. 60 min, 365 nm flashlight only, 100 IU/mL thrombin): displaying fluorescence | fluorescence signal, relative rank (thrombin [5]; 365 nm flashlight only): +++ | fluorescence signal (thrombin [5]; ambient overhead lighting and 365 nm flashlight): strongest | fluorescence on the surface underneath the cellulose matrix (thrombin [6]): spots of fluorescence could be seen | color change in plasma (thrombin [7]; 5 min after combining PNP, substrate and PT reagent, ambient overhead lighting only): no color change was observed | fluorescence signal in plasma (thrombin [7]; approx. 5 min, 365 nm flashlight only, 0.10 mL stock (Sigma 5 mg/mL in DMSO; HTI 0.25 mg/mL in TBS)): strong fluorescence signal | fluorescence in plasma (thrombin [7]; approx. 5 min, ambient overhead lighting and 365 nm flashlight, 0.10 mL stock (Sigma 5 mg/mL in DMSO)): strong fluorescence | time sample remained fluid before clotting (pooled normal plasma): approx. 3 min | fluorescence signal at bleeding site (thrombin [8]; 0.5 mL of 5 mg/mL in DMSO sprayed onto bleeding site, flashlight (356 nm) 2-3 min after application, no exogenous thrombin added): could be detected | detection of bleeding in a liver abrasion model (thrombin [8]; canine, sprayed onto bleeding site): enabled detection of bleeding
